Assay results published in the supplement of paper PMC11061612.

Legend:
Assay in all cases: combination Emax (second highest fraction inhibited in the dose matrix, 72 h); higher = more inhibition; extreme values may be limits of the assay
[1] = tested on: CML-T1 (Chronic Myelogenous Leukemia)
Method in brief: (§1)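 Cell lines in DMEM/F12 or RPMI with 10% FBS were plated in 1536-well plates, held 24 hours at 37°C, 5% CO2, then given two-drug dose matrices for 72 hours (DMSO typically 0.2%). Viability was read by CellTiter-Glo 2.0 luminescence and scaled as inhibition from 0 (vehicle wells) to 1 (blank wells). Combination Emax is the second-highest inhibition in the matrix; Bliss excess is observed combination effect minus expected EA + EB − EA·EB, EA and EB being single-agent effects.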

[2] = tested on: NCI-H1563 (Lung Adenocarcinoma)
Method in brief: as §1

KYM-1 (Rhabdomyosarcoma) = tested on: KYM-1 (Rhabdomyosarcoma)
Method in brief: as §1

[3] = tested on: EB-3 (Burkitt's Lymphoma)
Method in brief: as §1

[4] = tested on: SNU-175 (Colorectal Carcinoma)
Method in brief: as §1

[5] = tested on: FLO-1 (Esophageal Adenocarcinoma)
Method in brief: as §1

[6] = tested on: RPMI-8866 (Chronic Myelogenous Leukemia)
Method in brief: as §1

[7] = tested on: SW684 (Other Solid Carcinomas)
Method in brief: as §1

[8] = tested on: COLO-684 (Endometrial Carcinoma)
Method in brief: as §1

CHL-1 (Melanoma) = tested on: CHL-1 (Melanoma)
Method in brief: as §1

[9] = tested on: AN3-CA (Endometrial Carcinoma)
Method in brief: as §1

RT4 (Bladder Carcinoma) = tested on: RT4 (Bladder Carcinoma)
Method in brief: as §1

[10] = tested on: Becker (Low Grade Glioma)
Method in brief: as §1

[11] = tested on: Calu-6 (Non-Small Cell Lung Carcinoma)
Method in brief: as §1

[12] = tested on: BALL-1 (B-Lymphoblastic Leukemia)
Method in brief: as §1

[13] = tested on: SJRH30 (Rhabdomyosarcoma)
Method in brief: as §1

[14] = tested on: HSC-3 (Oral Cavity Carcinoma)
Method in brief: as §1

[15] = tested on: NCI-H1623 (Lung Adenocarcinoma)
Method in brief: as §1

ES-2 (Ovarian Carcinoma) = tested on: ES-2 (Ovarian Carcinoma)
Method in brief: as §1

[16] = tested on: NCI-H1755 (Lung Adenocarcinoma)
Method in brief: as §1

Compound | combination Emax [1] | combination Emax [2] | combination Emax (KYM-1 (Rhabdomyosarcoma)) | combination Emax [3] | combination Emax [4] | combination Emax [5] | combination Emax [6] | combination Emax [7] | combination Emax [8] | combination Emax (CHL-1 (Melanoma)) | combination Emax [9] | combination Emax (RT4 (Bladder Carcinoma)) | combination Emax [10] | combination Emax [11] | combination Emax [12] | combination Emax [13] | combination Emax [14] | combination Emax [15] | combination Emax (ES-2 (Ovarian Carcinoma)) | combination Emax [16]
CCc1c2c(nc3ccc(O)cc13)-c1cc3c(c(=O)n1C2)COC(=O)[C@]3(O)CC [SN-38] + CN(C)CCCOc1ccc(-c2ccc3ncc4c(c3c2)n(C2CCOCC2)c(=O)n4C)cn1 [AZD0156] (first compound max 0.3 µM, 7x7, partner max 1 µM) | 1 | 0.441 | 0.952 | 0.748 | 0.478 | 0.664 | 0.982 | 0.462 | 0.473 | 0.567 | 0.325 | 0.819 | 0.847 | 0.762 | 1 | 0.359 | 0.855 | 0.822 | 0.912 | 0.752
C[C@@H](c1ccc2nccn2c1)n1nnc2ncc(-c3cnn(C)c3)nc21 [Savolitinib] + CC1(C)CCC(CN2CCN(c3ccc(C(=O)NS(=O)(=O)c4ccc(NCC5CCOCC5)c([N+](=O)[O-])c4)c(Oc4cnc5[nH]ccc5c4)c3)CC2)=C(c2ccc(Cl)cc2)C1 [Venetoclax] (first compound max 1 µM, 7x7, partner max 1 µM) | 0.279 | 0.18 | 0.185 | 0.253 | 0.119 | 0.2 | 0.0738 | 0.231 | 0.174 | 0.118 | 0.0904 | 0.12 | 0.344 | 0.194 | 1 | 0.126 | 0.107 | 0.173 | 0.137 | 0.101
C[C@@H](c1ccc2nccn2c1)n1nnc2ncc(-c3cnn(C)c3)nc21 [Savolitinib] + Cc1c2c(nn1C)CSCc1cc(n(C)n1)CSc1cc(c3ccccc3c1)OCCCc1c(C(=O)O)n(C)c3c-2c(Cl)ccc13 [AZD5991] (first compound max 1 µM, 7x7, partner max 1 µM) | 0.228 | 0.465 | 0.43 | 0.361 | 0.426 | 0.294 | 0.108 | 0.161 | 0.174 | 0.291 | 0.308 | 0.25 | 0.366 | 0.172 | 0.612 | 0.464 | 0.206 | 0.802 | 0.176 | 0.173
Cn1cnc2c(F)c(Nc3ccc(Br)cc3Cl)c(C(=O)NOCCO)cc21 [Selumetinib] + C=CCn1c(=O)c2cnc(Nc3ccc(N4CCN(C)CC4)cc3)nc2n1-c1cccc(C(C)(C)O)n1 [AZD1775] (first compound max 10 µM, partner max 1 µM) | 0.939 | 0.303 | 0.591 | 0.703 | 0.718 | 0.792 | 0.956 | 0.152 | 0.708 | 0.572 | 0.354 | 0.368 | 0.309 | 0.855 | 1 | 0.846 | 0.601 | 0.607 | 0.66 | 0.776
Cn1cnc2c(F)c(Nc3ccc(Br)cc3Cl)c(C(=O)NOCCO)cc21 [Selumetinib] + CC(C)n1c(=O)n(C)c2cnc3cc(F)c(-c4ccc(OCCCN5CCCCC5)nc4)cc3c21 [AZD1390] (first compound max 10 µM, 7x7, partner max 0.3 µM) | 0.628 | 0.161 | 0.141 | 0.215 | 0.27 | 0.424 | 0.193 | 0.152 | 0.125 | 0.0273 | 0.0572 | 0.257 | 0.235 | 0.672 | 0.24 | 0.0759 | 0.346 | 0.276 | 0.377 | 0.235
Cn1cnc2c(F)c(Nc3ccc(Br)cc3Cl)c(C(=O)NOCCO)cc21 [Selumetinib] + CCN(CCO)CCCOc1ccc2c(Nc3cc(CC(=O)Nc4cccc(F)c4)[nH]n3)ncnc2c1 [AZD2811] (first compound max 10 µM, 7x7, partner max 1 µM) | 0.765 | 0.232 | 0.318 | 0.219 | 0.956 | 0.475 | 0.34 | 0.277 | 0.14 | 0.257 | 0.268 | 0.516 | 0.296 | 0.733 | 0.477 | 0.253 | 0.512 | 0.331 | 0.488 | 0.541
Cn1cnc2c(F)c(Nc3ccc(Br)cc3Cl)c(C(=O)NOCCO)cc21 [Selumetinib] + C[C@@H]1COCCN1C2=NC(=NC(=C2)C3(CC3)[S@](=N)(=O)C)C4=C5C=CNC5=NC=C4 [AZD6738] (first compound max 10 µM, 7x7, partner max 10 µM) | 0.977 | 0.313 | 0.899 | 0.589 | 0.718 | 0.635 | 0.943 | 0.265 | 0.698 | 0.772 | 0.464 | 0.549 | 0.427 | 0.817 | 1 | 0.821 | 0.545 | 0.771 | 0.714 | 0.738
CC(=O)Nc1cccc(-n2c(=O)n(C3CC3)c(=O)c3c(Nc4ccc(I)cc4F)n(C)c(=O)c(C)c32)c1 [Trametinib] + Cc1nc(-c2cn3c(n2)-c2ccc(-c4cnn(C(C)(C)C(N)=O)c4)cc2OCC3)n(C(C)C)n1 [Taselisib] (first compound max 1 µM, 7x7, partner max 10 µM) | 0.465 | 0.793 | 0.4 | 0.373 | 0.627 | 0.665 | 0.71 | 0.929 | 0.57 | 0.638 | 0.997 | 0.734 | 0.678 | 0.987 | 0.532 | 0.947 | 0.986 | 1 | 0.725 | 0.978
CC1(C)CCC(CN2CCN(c3ccc(C(=O)NS(=O)(=O)c4ccc(NCC5CCOCC5)c([N+](=O)[O-])c4)c(Oc4cnc5[nH]ccc5c4)c3)CC2)=C(c2ccc(Cl)cc2)C1 [Venetoclax] + C1CN(CCC1(C(=O)N[C@@H](CCO)C2=CC=C(C=C2)Cl)N)C3=NC=NC4=C3C=CN4 [Capivasertib] (first compound max 1 µM, 7x7, partner max 3 µM) | 0.935 | 0.396 | 0.0721 | 0.176 | 0.162 | 0.192 | 0.292 | 0.392 | 0.625 | 0.163 | 0.653 | 0.0704 | 0.359 | 0.111 | 1 | 0.387 | 0.391 | 0.314 | 0.14 | 0.648
CC1(C)CCC(CN2CCN(c3ccc(C(=O)NS(=O)(=O)c4ccc(NCC5CCOCC5)c([N+](=O)[O-])c4)c(Oc4cnc5[nH]ccc5c4)c3)CC2)=C(c2ccc(Cl)cc2)C1 [Venetoclax] + C=CCn1c(=O)c2cnc(Nc3ccc(N4CCN(C)CC4)cc3)nc2n1-c1cccc(C(C)(C)O)n1 [AZD1775] (first compound max 1 µM, partner max 1 µM) | 1 | 0.371 | 0.314 | 0.674 | 0.553 | 0.84 | 0.951 | 0.604 | 0.732 | 0.891 | 0.446 | 0.372 | 0.76 | 0.787 | 1 | 0.9 | 0.492 | 0.577 | 0.644 | 0.846
CC1(C)CCC(CN2CCN(c3ccc(C(=O)NS(=O)(=O)c4ccc(NCC5CCOCC5)c([N+](=O)[O-])c4)c(Oc4cnc5[nH]ccc5c4)c3)CC2)=C(c2ccc(Cl)cc2)C1 [Venetoclax] + CCN(CCO)CCCOc1ccc2c(Nc3cc(CC(=O)Nc4cccc(F)c4)[nH]n3)ncnc2c1 [AZD2811] (first compound max 1 µM, 7x7, partner max 1 µM) | 0.991 | 0.193 | 0.162 | 0.319 | 0.912 | 0.359 | 0.601 | 0.275 | 0.19 | 0.531 | 0.399 | 0.702 | 0.221 | 0.346 | 1 | 0.287 | 0.436 | 0.211 | 0.233 | 0.678
CC1(C)CCC(CN2CCN(c3ccc(C(=O)NS(=O)(=O)c4ccc(NCC5CCOCC5)c([N+](=O)[O-])c4)c(Oc4cnc5[nH]ccc5c4)c3)CC2)=C(c2ccc(Cl)cc2)C1 [Venetoclax] + CN(C)CCCOc1ccc(-c2ccc3ncc4c(c3c2)n(C2CCOCC2)c(=O)n4C)cn1 [AZD0156] (first compound max 1 µM, 7x7, partner max 1 µM) | 0.947 | 0.406 | 0.158 | 0.343 | 0.128 | 0.339 | 0.0785 | 0.284 | 0.211 | 0.27 | 0.227 | 0.189 | 0.434 | 0.199 | 1 | 0.177 | 0.233 | 0.262 | 0.22 | 0.654
